Test results: patent publication US8236279B2, “Bisaminoethanethiol-targeting ligand conjugates and compositions” (priority 1999, dated 2012)
Entries after “also recorded” stand apart in the source; their conditions may differ.

Experiments:
hexokinase = test: Hexokinase assay (glucose phosphorylation); assay type: biochemical; conditions: UV wavelength 340 nm
Method: To determine if EC-DG mimics glucose phosphorylation, a hexokinase assay was conducted. Using a ready made kit (Sigma Chemical Company), EC-DG, glucosamine and glucose (standard) were assayed at UV wavelength 340 nm.

[1] = list continues over wrapped lines of the table; cited from earlier work
[2] = system: Breast Tumor-Bearing Rats (13762 tumor cell line); test: Tissue distribution (biodistribution) studies in breast tumor-bearing rats; conditions: for Biodistribution: Brain / Biodistribution: Heart / Biodistribution: Spleen / Tumor/Blood ratio / Tumor/Liver ratio / Tumor/Muscle ratio: Table 9; for tumor/blood and tumor/muscle count density ratios, course over time: […] (so in the source)
Method: Studies performed 14 to 17 days after implantation when tumors reached approximately 1 cm diameter. Animals were anesthetized with ketamine (10-15 mg/rat, intraperitoneally) before each procedure.
The injected mass of each ligand was 10 μg per rat. At 20 min, 1, 2 and 4 h following administration of the radiopharmaceuticals, the anesthetized animals were sacrificed and the tumor and selected tissues were excised, weighed and counted for radioactivity by a gamma counter (Packard Instruments, Downers Grove, Ill.). The biodistribution of tracer in each sample was calculated as percentage of the injected dose per gram of tissue wet weight (% ID/g). Counts from a diluted sample of the original injectate were used for reference. Tumor/nontarget tissue count density ratios were calculated from the corresponding % ID/g values. Student-t test was used to assess the significance of differences between two groups.
Studies performed 14 to 17 days after implantation when tumors reached approximately 1 cm diameter. Rats were anesthetized with ketamine (10-15 mg/rat, intraperitoneally) before each procedure.
In tissue distribution studies, each animal was injected intravenously with 370-550 KBq of ^99mTc-EC-MN or ^99mTc-EC (n=3/time point). The injected mass of ^99mTc-EC-MN was 10 μg per rat. At 0.5, 2 and 4 hrs following administration of the radiotracers, the rats were sacrificed and the selected tissues were excised, weighed and counted for radioactivity. The biodistribution of tracer in each sample was calculated as percentage of the injected dose per gram of tissue wet weight (% ID/g). Tumor/nontarget tissue count density radios were calculated from the corresponding % ID/g values. […] Student t-test was used to assess the significance of differences between groups.
(§1) At 0.5, 2 and 4 hrs following administration of the radiotracers, the rats were sacrificed and the selected tissues were excised, weighed and counted for radioactivity. The biodistribution of tracer in each sample was calculated as percentage of the injected dose per gram of tissue wet weight (% ID/g). Tumor/nontarget tissue count density ratios were calculated from the corresponding % ID/g values. Student t-test was used to assess the significance of differences between groups.
as §1, with “hours” for “hrs”, “values.” for “values. Student t-test was used to assess the significance of differences between groups.”
Studies were performed 14 to 17 days after implantation when tumors reached approximately 1 cm diameter. Rats were anesthetized with ketamine (10-15 mg/rat, intraperitoneally) before each procedure.
In tissue distribution studies, each animal was injected intravenously with 10-20 μCi (per rat) or 1-2 μCi (per mouse) of ^99mTc-EC or ^99mTc-EC-DG (n=3/time point). The injected mass of ^99mTc-EC-DG was 1 mg per rat. At 0.5, 2 and 4 hours following administration of the radiotracers, the rodents were sacrificed and the selected tissues were excised, weighed and counted for radioactivity. The biodistribution of tracer in each sample was calculated as percentage of the injected dose per gram of tissue wet weight (% ID/g). Tumor/nontarget tissue count density ratios were calculated from the corresponding % ID/g values.

[3] = Effect of loading on blood glucose level in normal rats; assay type: in vivo, Fischer 344 rats; conditions: insulin (5 units) after 30 minutes
Method: The blood glucose level (mg/dl) was determined by a glucose meter (Glucometer DEX, Bayer Corporation, Elkhart, Ind.). Prior to the study, the baseline of blood glucose level was obtained. […] In a separate experiment, a group of rats was administered EC-deoxyglucose and FDG. Insulin (5 units) was administered after 30 minutes.

[4] = system: breast (13762) and lung (A549) cancer cells; test: Effect of d- and l-glucose on cellular uptake; assay type: cell-based; conditions: 1-2.0 mg/well, 2 hours incubation
Method: To evaluate if the uptake of ^99mTc-EC-deoxyglucose is mediated via d-glucose mechanism, d- and l-glucose (1 mg and 2.0 mg) were added to, each well containing either breast or lung cancer cells (50,000/0.5 ml/well), along with 2 μCi of ^99mTc-EC-deoxyglucose and ^18F-FDG. After 2 hours incubation, the cells were washed with phosphate buffered saline 3 times and followed by trypsin to lose the cells. The cells were counted by a gamma counter.

[5] = system: breast tumor-bearing rats; test: Scintigraphic (gamma camera) imaging studies in tumor-bearing rats; assay type: in vivo; conditions: different time points (0.5-4 hrs) after i.v. injection
[6] = system: two lung cancer cell lines and one breast cell line (A549, H1299, 13762); test: Effect of glucose on cellular uptake; assay type: cell-based
Method: Neomycin is known to influence glucose absorption (Rogers et al., 1968; Fanciulli et al., 1994). […] After incubation, the cells were washed with phosphate buffered saline 3 times and followed by trypsin to lose the cells. The cells were then counted by a gamma counter.

[7] = system: A549 lung cancer cell line; test: In vitro cellular uptake assay; assay type: cell-based, human; conditions: 2 μCi per well, 80,000 cells, incubation 0.5-4 hours
Method: After incubation at 0.5-4 hours, the cells were washed with phosphate buffered saline 3 times and followed by trypsin to lose the cells.
In vitro cellular uptake assay was conducted by using a human lung cancer cell line (A549). Two μCi of ^99mTc-EC-DG and ^18F-FDG were added to wells containing 80,000 cells each. After incubation at 0.5-4 hours, the cells were washed with phosphate buffered saline 3 times and followed by trypsin to lose the cells. The cells were then counted by a gamma counter.

[8] = system: patients (3 brain tumors and 2 lung diseases); test: Preliminary clinical imaging studies in patients (brain tumors, lung diseases); assay type: in vivo, human; conditions: images 1-2 hours post-administration
Method: Scintigraphic images, using a gamma camera equipped with low-energy, parallel-hole collimator, were obtained 0.5, 2 and 4 hours after i.v. injection of 100 μCi of the radiotracer. The animal model used was breast tumor-bearing rats. […] Preliminary clinical studies were conducted in 5 patients (3 brain tumors and 2 lung diseases).

Water solubility = assay type: physicochemical

For N[C@H]1C(O)O[C@H](CO)[C@@H](O)[C@@H]1O (some centres unmarked) [glucosamine], the hexokinase assay (hexokinase) was “positive”.

For CCC1(c2ccc(N)cc2)CCC(=O)NC1=O (centres unmarked) [Aminogiutethimide], the “Acute Toxicity” value [1] is listed as “Drowsiness; nausea; dizziness; rash” and the Delayed toxicity [1] is listed as “Hypothryroidism (rare); bone”.

For [O]=[99Tc](=[O])(=[O])[O-] [^99mTc Pertechnetate], the “Biodistribution: Brain” value ([2]; 2 Hour) was 0.022 ± 0.002 % ID/g, the “Biodistribution: Heart” value ([2]; 2 Hour) was 0.145 ± 0.015 % ID/g and the “Biodistribution: Spleen” value ([2]; 2 Hour) was 0.187 ± 0.014 % ID/g. It also gave a Tumor/Blood ratio ([2]; 2 Hour) of 0.497 ± 0.073, a Tumor/Liver ratio ([2]; 2 Hour) of 1.084 ± 0.115 and a Tumor/Muscle ratio ([2]; 2 Hour) of 4.302 ± 0.093. The “Biodistribution: Brain” value ([2]; 4 Hour) was 0.031 ± 0.009 % ID/g, the “Biodistribution: Heart” value ([2]; 4 Hour) was 0.166 ± 0.012 % ID/g and the “Biodistribution: Spleen” value ([2]; 4 Hour) was 0.225 ± 0.017 % ID/g. For the same molecule, the Tumor/Blood ratio ([2]; 4 Hour) was 0.597 ± 0.144, the Tumor/Liver ratio ([2]; 4 Hour) was 0.865 ± 0.270 and the Tumor/Muscle ratio ([2]; 4 Hour) was 6.689 ± 1.458. The “Biodistribution: Brain” value ([2]; 30 Min.) was 0.038 ± 0.014 % ID/g, the “Biodistribution: Heart” value ([2]; 30 Min.) was 0.275 ± 0.089 % ID/g and the “Biodistribution: Spleen” value ([2]; 30 Min.) was 0.331 ± 0.108 % ID/g. It also gave a Tumor/Blood ratio ([2]; 30 Min.) of 0.472 ± 0.093, a Tumor/Liver ratio ([2]; 30 Min.) of 1.084 ± 0.023 and a Tumor/Muscle ratio ([2]; 30 Min.) of 4.788 ± 0.833.

In the case of OC[C@H]1OC(O)[C@H](F)[C@@H](O)[C@@H]1O (some centres unmarked) [FDG], the “increased blood glucose level on co-administration with insulin” value [3] is reported as “suppressed”.

In the case of Aldesleukin, the “Acute Toxicity” value [1] is listed as “Fever; fluid retention; hypertension;” and the Delayed toxicity [1] is listed as “Neuropsychiatric disorders;”.

For OC[C@H]1OC(O)[C@H]([18F])[C@@H](O)[C@@H]1O (some centres unmarked) [^18F-FDG], the “effect of d-glucose on cellular uptake” value [4] was “decreased uptake” and the “effect of l-glucose on cellular uptake” value [4] was “no influence”.

In the case of COc1cc(NS(C)(=O)=O)ccc1Nc1c2ccccc2nc2ccccc12 [Amsacrine], the Delayed toxicity [1] is listed as “Bone marrow depression;”.

In the case of O=[N+]([O-])c1nccn1CC(O)C[18F] (centres unmarked) [[^18F]FMISO], the “tumor-to-blood uptake ratio, comparison among [18F]FMISO, [131I]IMISO and 99mTc-EC-MN” value ([2]; 30 min, 2 and 4 hrs post-injection) is reported as “highest” and the “tumor/blood and tumor/muscle count density ratios, course over time” value [2] is reported as “gradually increased”.

With O=C(O)[C@@H]1C[S][99Tc]23(=[O])[S]C[C@@H](C(=O)O)[N]2CC[N]13 [^99mTc-EC, ^99mTc-L,L-ethylenedicysteine] the “tumor/blood count density ratios, course over time” value ([2]; 20 min-4 h) was “decreased”, the “tumor/blood and tumor/muscle count density ratios, course over time” value [2] was “did not alter” and the “tumor-to-blood and tumor-to-muscle values, course over time” value ([2]; same time period (0.5-4 hours)) was “time-dependent decrease”. For the same molecule, the “Scintigraphic images: visualization of tumor / tumor uptake” value [5] was “no apparent tumor uptake; also recorded: less tumor uptake” and the “cellular uptake of control” value [6] was “no uptake”.

In the case of O=[N+]([O-])c1nccn1CC(O)C[131I] (centres unmarked) [[^131I]IMISO], the “Tumor/blood and tumor/muscle ratios, 99mTc-EC-MN versus [131I]IMISO” value ([2]; 2 and 4 hrs postinjection, (p<0.05) as printed) is reported as “not significantly different” and the “tumor/blood and tumor/muscle count density ratios, course over time” value [2] is reported as “gradually increased”.

With OC[C@H]1OC(O)[C@H](O)[C@@H](O)[C@@H]1O (some centres unmarked) [Glucose] the hexokinase assay (hexokinase) was “positive”.

For O=C(N[C@H]1C(O)O[C@H](CO)[C@@H](O)[C@@H]1O)[C@@H]1C[S][Tc]23(=[O])[S]C[C@@H](C(=O)N[C@H]4C(O)O[C@H](CO)[C@@H](O)[C@@H]4O)[N]2CC[N]13 (some centres unmarked) [^99mTc-EC-DG], the “tumor-to tissue ratios, course over time, compared to 99mTc-EC and free technetium” value ([2]; 0.5-4 hours) was “increased as a function of time”, the “Scintigraphic images: visualization of tumor / tumor uptake” value [5] was “visualized well” and the “Scintigraphic images: visualization of tumor / tumor uptake” value ([5]; listed as 99mTc-EC-deoxyglucose) was “well visualized”. For the same molecule, the cellular uptake [7] was “comparable to FDG”, the “effect of d-glucose on cellular uptake” value [4] was “decreased uptake” and the “effect of l-glucose on cellular uptake” value [4] was “no influence”. For the same molecule, the “differentiation of benign versus malignant tumors” value [8] was “able to differentiate benign versus malignant tumors”, the “uptake in benign meningioma” value [8] was “no focal intensed uptake; also recorded: poor uptake” and the “uptake in lung tumor” value [8] was “focal intensed uptake; also recorded: high uptake”. The “uptake in malignant astrocytoma” value [8] was “high uptake” and the “uptake in patient with TB” value [8] was “no focal intensed uptake; also recorded: Poor uptake”.

In the case of L,L-ethylenedicysteine [EC], the water solubility (Water solubility) is reported as “water soluble”.

B1: Asparaginase: anticancer drug listed in Table 2 (protein, UniProt P00805 23-348, looked up)
L-asparaginase 2: LPNITILATGGTIAGGGDSATKSNYTVGKVGVENLVNAVPQLKDIANVKGEQVVNIGSQDMNDNVWLTLAKKINTDCDKTDGFVITHGTDTMEETAYFLDLTVKCDKPVVMVGAMRPSTSMSADGPFNLYNAVVTAADKASANRGVLVVMNDTVLDGRDVTKTNTTDVATFKSVNYGPLGYIHNGKIDYQRTPARKHTSDTPFDVSKLNELPKVGIVYNYANASDLPAKALVDAGYDGIVSAGVGNGNLYKSVFDTLATAAKTGTAVVRSSRVPTGATTQDAEVDDAKYGFVASGTLNPQKARVLLQLALTQTKDPQQIQQIFNQY
For B1, the “Acute Toxicity” value [1] is given as “Nausea and vomiting; fever; chills;”.
